Assay results reported in patent US20250002854A1, “METHODS OF GENERATING POPULATIONS OF TUMOUR-INFILTRATING T CELLS” (LYTIX BIOPHARMA AS, priority 2016, published 2025).
Square brackets hold non-standard residues; d marks the D form. Ends that are not written are not given here. Dip = N[C@H](C(=O)O)C(c1ccccc1)c1ccccc1

Columns and labels:
[1] = system: Human osteosarcoma U2OS cells; assay: Transmission electron microscopy of U2OS cells after LTX-315; type: cell-based
Protocol: Cytoplasmic membrane disintegration was carried out as described in FORVEILLE S. et al., Cell Cycle 2015, 14: 3506-12.
Human osteosarcoma U2OS cells were cultured in Glutamax-containing DMEM medium supplemented with 10% fetal calf serum (FCS), and […] HEPES buffer. Cells were grown at 37° C. in a humidified incubator under a 5% CO2 atmosphere.
For ultrastructural studies, human osteosarcoma U2OS cells were fixed in 1.6% glutaraldehyde (v/v in 0.1 M phosphate buffer) for 1 h, collected by scraping, centrifuged and the pellet was post-fixed 1% osmium tetroxide (w/v in 0.1 M phosphate buffer). Following dehydration through a graded ethanol series, cells were embedded in Epon™ 812 and ultrathin sections were stained with standard uranyl acetate and lead citrate. Images were taken using a Tecnai 12 electron microscope (FEI, Eindhoven, the Netherlands).

A375 cells = assay: Confocal imaging with Mitotracker (mitochondrial membrane potential); type: cell-based, human; conditions: short time after peptide treatment; data not shown
Protocol: Fixed cells, mitotracker—Cells were seeded as for live cell imaging, and treated with Mitotracker CMH2XROS (Invitrogen) at […] for 15 minutes prior to peptide treatment. Cells were treated with 17 μM LTX-315, with negative control serum-free RPMI only. After 60 min of incubation, cells were analyzed using a Zeiss microscope.

MCA205 sarcoma = conditions: mouse, in vivo
Protocol: Mice were subcutaneously injected into the right flank with 1×10^6 MCA205 cells. Tumour cell lines were inoculated into C57BL/6 mice. Tumour surfaces (longest dimension×perpendicular dimension) were routinely monitored by caliper. When tumours reached a size of 20-25 mm^2 (day 0), mice were administered intratumourally with three consecutive daily injections of 300 μg LTX-315. In T-cell depletion experiments (FIG. 24), anti-CD4 and anti-CD8 monoclonal antibodies (mAbs) (GK1.5 and 53-6.72, respectively; 200 μg per mouse) or their isotype controls (LTF-2 and 2A3, respectively) were injected intraperitoneally 3 and 4 days before the first LTX-315 injection and continued every other 7 days. All mAbs for in vivo use were obtained from BioXcell (West Lebanon, NH, USA), using the recommended isotype control mAbs.
Tumours and spleens were harvested 7 days after the first injection of LTX-315. Excised tumours were cut into small pieces and digested in RPMI-1640 medium containing Liberase at 25 μg/ml (Roche, Boulogne-Billancourt, France) and DNase1 at 150 UI/ml (Roche) for 30 min at 37° C. The mixture was subsequently passaged through a 100 μm cell strainer. […] All cells were analysed on a CyAn ADP (Beckman Coulter, Marseille, France) flow cytometer with FlowJo (Tree Star, Ashland, OR) software.

[2] = system: rat transformed mesenchymal stem cell-derived sarcoma (rTMSC); assay: Immunohistochemistry of rat rTMSC tumours; type: in vivo; conditions: primary and secondary tumor tissues
Protocol: Pre-cultured rat transformed mesenchymal stem cell-derived sarcoma model cells (rTMSCs) were harvested in serum free RPMI-1640 and 200,000 rTMSCs were subcutaneously inoculated in the right flank into PVG rats on day ÷2 and 20,000 rTMSCs in the opposite flank on day 0. Established tumours (25 mm^2 mean tumour size) were injected intralesionally with LTX-315 (dissolved in sterile H2O with 0.9% NaC ) (n=8) or with vehicle (sterile H2O with 0.9% NaCl) (n=6). Treatment doses of LTX-315, 50 μl at […] (1 mg), were given using a 1 ml syringe (Myjector U-100, Terumo) needle 0.5×16 mm (Fine-Ject; Henke-Sass, Wolf GmbH. Injections were provided daily for three subsequent days. Tumour size was measured three times a week using a caliper and expressed as the area of an ellipse [(maximum dimension/2)×(minimum dimension/2)]. Animals were terminated when the tumor exceeded 400 mm^2.
Formalin-fixed and paraffin-embedded tissue sections were deparaffinized in xylene and graded alcohols, hydrated and washed in PBS. After antigen retrieval in sodium citrate buffer (pH 6) in a microwave oven, the endogenous peroxidase was blocked by 0.3% H2O2 for 15 min. Sections were incubated overnight at 4° C. with primary antibody; rabbit polyclonal anti-CD3 (clone A0452 Dako) or mouse monoclonal anti-CD8 (clone OX8, ab33786, Abcam). […]

rat sarcoma model = assay: Rat sarcoma model with three lesions, tumour growth by live imaging; type: in vivo; conditions: LTX-315 injected into one subcutaneous lesion

K-K-W-W-K-K-W-Dip-K-NH2 (KKWWKKW[Dip]K-NH2) [LTX-315]
cell morphology after administration (TEM) [1]: necrotic morphology with disintegration of cytoplasmic membranes
Mitotracker mitochondrial signal (A375 cells): loss of mitochondrial signal
cytotoxic CD4+ TILs in tumour beds (IFNγ+, IL-17+, IFNγ+ IL-17+) (MCA205 sarcoma): markedly increased
cytotoxic CD8+ TILs in tumour beds (IFNγ+, TNFα+, IFNγ+ TNFα+) (MCA205 sarcoma): markedly increased
infiltration of CD3+ and CD8+ cells (immunohistochemistry) [2]: increased infiltration of CD3^+ and CD8^+ cells
effect on lesions (intraperitoneal and two subcutaneous tumours) (rat sarcoma model): eradicated all three lesions
